From the supplement of paper PMC11424490

How the values were obtained:
NCI-H2122 = experiment: combination cScore with sotorasib (Bliss gap around IC50) (%PoC); higher = stronger additive effect
In short: (§1)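 The score averages the gap between expected and measured viability under Bliss independence, taken over a field around the IC50 of each single agent or, where an IC50 was not reached, at the highest concentrations. Viability came from CellTiter-Glo luminescence, normalised to vehicle wells as percent of control and fitted with four-parameter curves. NCI-H2122, NCI-H358 and SW837 cells were dosed in concentration matrices 24 h after seeding and grown for 72 h, or 144 h for SW837.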

SW837 = experiment: as above
In short: as §1

CC[C@H](C)C(=O)O[C@H]1C[C@@H](C)C=C2C=C[C@H](C)[C@H](CC[C@@H]3C[C@@H](O)CC(=O)O3)[C@H]21 [Lovastatin] + C=CC(=O)N1CCN(c2nc(=O)n(-c3c(C)ccnc3C(C)C)c3nc(-c4c(O)cccc4F)c(F)cc23)[C@@H](C)C1 [sotorasib]
combination cScore with sotorasib (NCI-H2122): -1.83 | combination cScore with sotorasib (SW837): -0.46

COc1cc(Nc2ncc3c(n2)-c2ccc(Cl)cc2C(c2c(F)cccc2OC)=NC3)ccc1C(=O)O [MLN8237] + C=CC(=O)N1CCN(c2nc(=O)n(-c3c(C)ccnc3C(C)C)c3nc(-c4c(O)cccc4F)c(F)cc23)[C@@H](C)C1 [sotorasib]
combination cScore with sotorasib (NCI-H2122): -3.51 | combination cScore with sotorasib (SW837): 10.3

Cc1ccc(NC(=O)c2ccc(CN3CCN(C)CC3)cc2)cc1Nc1nc(-c2cccnc2)cs1 [Masitinib] + C=CC(=O)N1CCN(c2nc(=O)n(-c3c(C)ccnc3C(C)C)c3nc(-c4c(O)cccc4F)c(F)cc23)[C@@H](C)C1 [sotorasib]
combination cScore with sotorasib (NCI-H2122): 17.9 | combination cScore with sotorasib (SW837): -1.47

C[C@H](Cc1ccc(O)c(O)c1)[C@@H](C)Cc1ccc(O)c(O)c1 [Masoprocol] + C=CC(=O)N1CCN(c2nc(=O)n(-c3c(C)ccnc3C(C)C)c3nc(-c4c(O)cccc4F)c(F)cc23)[C@@H](C)C1 [sotorasib]
combination cScore with sotorasib (NCI-H2122): -1.02 | combination cScore with sotorasib (SW837): 1.64

N[C@@H](Cc1ccc(N(CCCl)CCCl)cc1)C(=O)O [Melphalan] + C=CC(=O)N1CCN(c2nc(=O)n(-c3c(C)ccnc3C(C)C)c3nc(-c4c(O)cccc4F)c(F)cc23)[C@@H](C)C1 [sotorasib]
combination cScore with sotorasib (NCI-H2122): 2.92 | combination cScore with sotorasib (SW837): 4.26

CN(C)C(=N)NC(=N)N [Metformin] + C=CC(=O)N1CCN(c2nc(=O)n(-c3c(C)ccnc3C(C)C)c3nc(-c4c(O)cccc4F)c(F)cc23)[C@@H](C)C1 [sotorasib]
combination cScore with sotorasib (NCI-H2122): 5.93 | combination cScore with sotorasib (SW837): -0.945

CN(Cc1cnc2nc(N)nc(N)c2n1)c1ccc(C(=O)N[C@@H](CCC(=O)O)C(=O)O)cc1 [Methotrexate] + C=CC(=O)N1CCN(c2nc(=O)n(-c3c(C)ccnc3C(C)C)c3nc(-c4c(O)cccc4F)c(F)cc23)[C@@H](C)C1 [sotorasib]
combination cScore with sotorasib (NCI-H2122): -3.03 | combination cScore with sotorasib (SW837): -3.51

CO[C@@]12[C@H](COC(N)=O)C3=C(C(=O)C(C)=C(N)C3=O)N1C[C@@H]1N[C@@H]12 [Mitomycin C] + C=CC(=O)N1CCN(c2nc(=O)n(-c3c(C)ccnc3C(C)C)c3nc(-c4c(O)cccc4F)c(F)cc23)[C@@H](C)C1 [sotorasib]
combination cScore with sotorasib (NCI-H2122): 11 | combination cScore with sotorasib (SW837): 4.84

CCc1cccc(CC)c1NC(=O)c1nn(C)c2c1CCc1cnc(Nc3ccc(C(=O)NC4CCN(C)CC4)cc3OC(F)(F)F)nc1-2 [NMS-P715] + C=CC(=O)N1CCN(c2nc(=O)n(-c3c(C)ccnc3C(C)C)c3nc(-c4c(O)cccc4F)c(F)cc23)[C@@H](C)C1 [sotorasib]
combination cScore with sotorasib (NCI-H2122): 2.28 | combination cScore with sotorasib (SW837): 13.2

O=c1cc(N2CCOCC2)oc2c(-c3cccc4c3sc3ccccc34)cccc12 [NU-7441] + C=CC(=O)N1CCN(c2nc(=O)n(-c3c(C)ccnc3C(C)C)c3nc(-c4c(O)cccc4F)c(F)cc23)[C@@H](C)C1 [sotorasib]
combination cScore with sotorasib (NCI-H2122): 15 | combination cScore with sotorasib (SW837): 9.27

Cn1c(=O)n(-c2ccc(C(C)(C)C#N)cc2)c2c3cc(-c4cnc5ccccc5c4)ccc3ncc21 [NVP-BEZ235] + C=CC(=O)N1CCN(c2nc(=O)n(-c3c(C)ccnc3C(C)C)c3nc(-c4c(O)cccc4F)c(F)cc23)[C@@H](C)C1 [sotorasib]
combination cScore with sotorasib (NCI-H2122): 12 | combination cScore with sotorasib (SW837): 7.37

Cc1cn(-c2cc(NC(=O)c3ccc(C)c(Nc4nccc(-c5cccnc5)n4)c3)cc(C(F)(F)F)c2)cn1 [Nilotinib] + C=CC(=O)N1CCN(c2nc(=O)n(-c3c(C)ccnc3C(C)C)c3nc(-c4c(O)cccc4F)c(F)cc23)[C@@H](C)C1 [sotorasib]
combination cScore with sotorasib (NCI-H2122): 6.86 | combination cScore with sotorasib (SW837): 14.3

COC(=O)c1ccc2c(c1)NC(=O)/C2=C(\Nc1ccc(N(C)C(=O)CN2CCN(C)CC2)cc1)c1ccccc1 [Nintedanib] + C=CC(=O)N1CCN(c2nc(=O)n(-c3c(C)ccnc3C(C)C)c3nc(-c4c(O)cccc4F)c(F)cc23)[C@@H](C)C1 [sotorasib]
combination cScore with sotorasib (NCI-H2122): 11.8 | combination cScore with sotorasib (SW837): 0.78

CN1CCN(c2ccc(-c3cccc(CN4CCOCC4)c3)cc2NC(=O)c2c[nH]c(=O)cc2C(F)(F)F)CC1 [OICR-9429] + C=CC(=O)N1CCN(c2nc(=O)n(-c3c(C)ccnc3C(C)C)c3nc(-c4c(O)cccc4F)c(F)cc23)[C@@H](C)C1 [sotorasib]
combination cScore with sotorasib (NCI-H2122): 9.62 | combination cScore with sotorasib (SW837): 3.36

O=C(O)C(=O)O.[NH-][C@@H]1CCCC[C@H]1[NH-].[Pt+2] [Oxaliplatin] + C=CC(=O)N1CCN(c2nc(=O)n(-c3c(C)ccnc3C(C)C)c3nc(-c4c(O)cccc4F)c(F)cc23)[C@@H](C)C1 [sotorasib]
combination cScore with sotorasib (NCI-H2122): 13.8 | combination cScore with sotorasib (SW837): 3.16
